PubChem BioAssay AID330 (DTP/NCI, 2004)
Toxic doses and inconclusive results are not listed. Rule for the calls: active = survival T/C of 150% or more; inactive = T/C below 125% in these data.

Test system: P388 leukemia ip, CD2F1 mice, survival T/C
Test: NCI In Vivo Anticancer Drug Screen. Data for tumor model P388 Leukemia (intraperitoneal) in CD2F1 (CDF1) mice
Conditions: endpoint: median survival time, higher = longer survival
Outline: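 Mice carrying the transplanted tumor received test compound or vehicle. Survival was recorded in each group, and the value is the treated-group measurement divided by that of the vehicle-treated control group.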

[1] = dose: 100.0 mg/kg/injection, schedule: Q04DX003 (ip), vehicle: saline
[2] = dose: 200.0 mg/kg/injection, schedule: Q04DX003 (ip), vehicle: saline
[3] = dose: 400.0 mg/kg/injection, schedule: Q04DX003 (ip), vehicle: saline
[4] = dose: 50.0 mg/kg/injection, schedule: Q01DX009 (ip), vehicle: saline with Tween-80
[5] = dose: 12.5 mg/kg/injection, schedule: Q01DX005 (ip), vehicle: Klucel (hydroxypropylcellulose) (HPC)
[6] = dose: 25.0 mg/kg/injection, schedule: Q01DX005 (ip), vehicle: Klucel (hydroxypropylcellulose) (HPC)
[7] = dose: 50.0 mg/kg/injection, schedule: Q01DX005 (ip), vehicle: Klucel (hydroxypropylcellulose) (HPC)
[8] = dose: 60.0 mg/kg/injection, schedule: Q01DX005 (ip), vehicle: saline with Tween-80
[9] = dose: 120.0 mg/kg/injection, schedule: Q01DX005 (ip), vehicle: saline with Tween-80
[10] = dose: 240.0 mg/kg/injection, schedule: Q01DX005 (ip), vehicle: saline with Tween-80

Measured: T/C

CC(/C=N\Nc1ccc(C(=O)O)cc1)=N/N(C)C
inactive: [1] 101 % of control | [2] 98 % of control | [3] 101 % of control

COc1ccc2nc3c(C)c4ccn(Cc5ccc(I)cc5)cc4c(C)c3c2c1
inactive: dose: 13.5 mg/kg/injection, schedule: Q04DX002 (ip), vehicle: saline with Tween-80 116 % of control | dose: 27.0 mg/kg/injection, schedule: Q04DX002 (ip), vehicle: saline with Tween-80 113 % of control | dose: 54.0 mg/kg/injection, schedule: Q04DX002 (ip), vehicle: saline with Tween-80 122 % of control | dose: 108.0 mg/kg/injection, schedule: Q04DX002 (ip), vehicle: saline with Tween-80 105 % of control

C[N+]1(C)CC=CCC1c1ccccc1 (stereo unspecified)
inactive: dose: 6.25 mg/kg/injection, schedule: Q01DX005 (ip), vehicle: saline 104 % of control | dose: 12.5 mg/kg/injection, schedule: Q01DX005 (ip), vehicle: saline 105 % of control | dose: 25.0 mg/kg/injection, schedule: Q01DX005 (ip), vehicle: saline 98 % of control

O=C(NCc1ccccc1)c1ccc([N+](=O)[O-])cc1
inactive: [4] 87 % of control | dose: 100.0 mg/kg/injection, schedule: Q01DX009 (ip), vehicle: saline with Tween-80 95 % of control | dose: 200.0 mg/kg/injection, schedule: Q01DX009 (ip), vehicle: saline with Tween-80 95 % of control | dose: 400.0 mg/kg/injection, schedule: Q01DX009 (ip), vehicle: saline with Tween-80 91 % of control

NC1=C(Br)C(=O)c2[nH]c(=O)[nH]c(=O)c2C1=O
inactive: dose: 6.25 mg/kg/injection, schedule: Q01DX005 (ip), vehicle: Klucel (hydroxypropylcellulose) (HPC) 98 % of control | [5] 100 % of control | [6] 102 % of control | [7] 100 % of control

CC(=O)Nc1ccc(S(=O)(=O)OC(C)C)cc1
inactive: [1] 105 % of control | [2] 113 % of control | [3] 118 % of control

COc1ccc2c3c([nH]c2c1N)C(C)NCC3 (stereo unspecified)
inactive: [5] 102 % of control | [6] 96 % of control | [7] 104 % of control | dose: 100.0 mg/kg/injection, schedule: Q01DX005 (ip), vehicle: Klucel (hydroxypropylcellulose) (HPC) 104 % of control

Cc1c(N)ccc(O)c1C
inactive: dose: 12.5 mg/kg/injection, schedule: Q01DX009 (ip), vehicle: saline with Tween-80 120 % of control | dose: 25.0 mg/kg/injection, schedule: Q01DX009 (ip), vehicle: saline with Tween-80 105 % of control | [4] 100 % of control

Nc1nnc(/C=C/c2ccccc2)o1
inactive: [8] 117 % of control | [9] 107 % of control | [10] 109 % of control

CC(=O)CCC1C(=O)N(C)C(=O)c2ccccc21 (stereo unspecified)
inactive: [8] 98 % of control | [9] 99 % of control | [10] 91 % of control

CN1COc2ccc3ccccc3c2C1
inactive: dose: 25.0 mg/kg/injection, schedule: Q01DX009 (ip), vehicle: saline 101 % of control | dose: 50.0 mg/kg/injection, schedule: Q01DX009 (ip), vehicle: saline 98 % of control | dose: 100.0 mg/kg/injection, schedule: Q01DX009 (ip), vehicle: saline 106 % of control

CC(CC(=O)c1ccccc1)C(Sc1ccccc1)(Sc1ccccc1)Sc1ccccc1 (stereo unspecified)
inactive: dose: 50.0 mg/kg/injection, schedule: Q01DX009 (ip), vehicle: Klucel (hydroxypropylcellulose) (HPC) 93 % of control | dose: 100.0 mg/kg/injection, schedule: Q01DX009 (ip), vehicle: Klucel (hydroxypropylcellulose) (HPC) 90 % of control | dose: 200.0 mg/kg/injection, schedule: Q01DX009 (ip), vehicle: Klucel (hydroxypropylcellulose) (HPC) 89 % of control

O=C1CSC(=S)N1c1ccc2c(c1)OCO2
inactive: [8] 92 % of control | [9] 90 % of control | [10] 90 % of control

O=C1CCCCCCCCCCC1[N+](=O)[O-] (stereo unspecified)
inactive: dose: 50.0 mg/kg/injection, schedule: Q01DX005 (ip), vehicle: saline with Tween-80 95 % of control | dose: 100.0 mg/kg/injection, schedule: Q01DX005 (ip), vehicle: saline with Tween-80 92 % of control | dose: 200.0 mg/kg/injection, schedule: Q01DX005 (ip), vehicle: saline with Tween-80 93 % of control
